In brackets after ≈: the same amount, converted by molar mass.
Legend:
Malassezia yeasts = experiment: In vitro antifungal potency (MIC), statements across the Malassezia species tested; type: cell-based
Procedure: (§1) Malassezia furfur (CBS 7982), Malassezia sympodialis (ATCC 42132), and Malassezia pachydermatis (CBS 1879) is grown for approximately 24 hours in a 250 ml vent cap polycarbonate Erlenmeyer flask containing approximately 100 ml of mDixon medium and 5 ml of a fully grown Malassezia culture is prepared using the same conditions as described. The cells are diluted by mixing 2.5 ml of the 24 hour-old culture per 50 ml of mDixon medium. A Versette robot (ThermoFisher Scientific) is used to transfer 292.5 μl of the dilute cells into each well of a Beckman 267007 polypropylene round bottom deep well plate.
(§2) All compounds are sourced from Sigma Aldrich (St. Louis, Mo.) and prepared as 10 mg/ml in DMSO. A semipermeable aeraseal membrane is applied to the plate which is then covered with water-soaked cotton batting. The samples are shaken at 31° C. on a Heidolph Titramax 100 shaker at 1500 rpm for approximately 72 hours. The plates are shaken at 1250 rpm on an Eppendorf MixMate shaker to disperse the cells before 200 μl of cells is transferred to a Corning 3596 polystyrene plate. The samples are shaken again at 950 rpm on a MixMate shaker before the absorbance at 600 nm is read using a Molecular Devices SpectraMax plate reader.

[1] = tested on: Aspergillus brasiliensis (ATCC 16404); experiment: In vitro antifungal potency (MIC), growth graded visually; type: cell-based; details: spores in SDB, 25° C., approximately 96 h; for MIC: Aspergillus brasiliensis, ATCC16404, read-out: MIC (ppm) against Aspergillus brasiliensis
Procedure: Aspergillus brasiliensis (ATCC 16404): Aspergillus spores are prepared by inoculating a Sabouraud agar plate and incubating at 25° C. for 6-10 days, after which, 10 mL of Saline+Tween-80 is added to dislodge the spores. The suspension is then filtered through 2 layers of sterile gauze. The spores are diluted two-fold in SDB. 190 μl of SDB is added to a Corning 3596 polystyrene plate followed by 5 μl of test compound per well and 5 μl of the diluted spores. The plates are incubated at 25° C. for approximately 96 h at high humidity. Growth is graded visually as either growth or no growth.
as §2

[2] = tested on: Malassezia furfur (CBS 7982); experiment: In vitro antifungal potency (MIC), growth read by absorbance at 600 nm; type: cell-based; details: for MIC (ppm) against Malassezia furfur / MIC: mDixon medium, 31° C., approximately 72 hours; for MIC: CBS7982, read-out: MIC (ppm) against Malassezia furfur
Procedure: as §1, §2

[3] = tested on: Malassezia pachydermatis (CBS 1879); experiment: as above; type: cell-based; details: mDixon medium, 31° C., approximately 72 hours; for MIC: Malassezia pachydermatis, CBS1879, read-out: MIC (ppm) against Malassezia pachydermatis
Procedure: as §1, §2

[4] = tested on: Malassezia sympodialis (ATCC 42132); experiment: as above; type: cell-based; details: mDixon medium, 31° C., approximately 72 hours; for MIC: Malassezia sympodialis, ATCC42132, read-out: MIC (ppm) against Malassezia sympodialis
Procedure: as §1, §2

[5] = tested on: Candida albicans (ATCC 10231); experiment: as above; type: cell-based; details: Sabouraud Broth, 31° C., evaluated at concentrations up to 250 ppm; for MIC: Candida albicans, ATCC10231, read-out: MIC (ppm) against Candida albicans
Procedure: Candida albicans (ATCC 10231) is grown overnight in Sabouraud Broth (SDB). 190 μl of SDB is added per well of a Corning 3596 polystyrene plate followed by 5 μl of test material as two-fold dilutions in DMSO and 5 μl C. albicans. The cells are incubated at 31° C., without shaking, and wrapped in wet cotton batting. The plates are shaken for 30 seconds at 950 rpm on a MixMate shaker. The absorbance at 600 nm is read on a Spectramax plate reader.
as §2

[6] = cited from earlier work

MIC (ppm) against Aspergillus brasiliensis [1] [ppm] | MIC (ppm) against Malassezia furfur [2] [ppm] | MIC (ppm) against Malassezia pachydermatis [3] [ppm] | MIC (ppm) against Malassezia sympodialis [4] [ppm] | MIC (ppm) against Candida albicans [5] [ppm] | times less potent than azoxystrobin (MIC against Malassezia furfur) ([2]; ratio of MICs, Malassezia furfur) [times] | Compound | MIC against Malassezia yeasts (all species tested) (Malassezia yeasts; M. furfur, M. sympodialis, M. pachydermatis) | times more potent than pyraclostrobin (MIC against Malassezia, in all cases) (Malassezia yeasts; ratio of MICs, all three Malassezia species) [times] | solubility in water [6] | MIC [1] [µg/mL] | MIC ([2]; Malassezia furfur) [µg/mL] | MIC [3] [µg/mL] | MIC [4] [µg/mL] | MIC [5] [µg/mL]
0.24 | 7.81 | 31.25 | 1.95 | >250 | – | CNC(=O)/C(=N/OC)c1ccccc1COc1cc(C)ccc1C [Dimoxystrobin, dimoxystrobin] | – | – | – | – | – | – | – | –
– | – | – | – | – | – | CO/N=C(/C1=NOCCO1)c1ccccc1Oc1ncnc(Oc2ccccc2Cl)c1F [Fluoxastrobin, fluoxastrobin] | – | – | – | 0.49 (≈ 1.07 µM) | 3.91 (≈ 8.52 µM) | 7.81 (≈ 17 µM) | 1.95 (≈ 4.25 µM) | > 250
– | – | – | – | – | – | CO/N=C(/C(=O)OC)c1ccccc1COc1ccccc1C [Kresoxim-methyl, kresoxim methyl] | – | – | – | 0.98 (≈ 3.13 µM) | 15.6 (≈ 49.9 µM) | 31.2 (≈ 99.7 µM) | 3.91 (≈ 12.5 µM) | > 250
31.25 | 31.25 | 125 | 7.81 | >250 | 64 | CNC(=O)/C(=N/OC)c1ccccc1CO/N=C(C)/C(=N/OC)C(/C)=N/OC [Orysastrobin, orysastrobin] | – | – | – | – | – | – | – | –
– | – | – | – | – | – | COC(=O)N(OC)c1ccccc1COc1ccn(-c2ccc(Cl)cc2)n1 [Pyraclostrobin, pyraclostrobin] | – | – | – | 0.02 (≈ 0.0516 µM) | 1.95 (≈ 5.03 µM) | 3.91 (≈ 10.1 µM) | 0.49 (≈ 1.26 µM) | > 250
– | – | – | – | – | – | CON=C(C(=O)OC)c1ccccc1CON=C(C)c1cccc(C(F)(F)F)c1 [Trifloxystrobin, trifloxystrobin] | – | – | – | 31.2 (≈ 76.5 µM) | 15.6 (≈ 38.3 µM) | 31.2 (≈ 76.5 µM) | 1.95 (≈ 4.78 µM) | > 250

Compound | MIC (ppm) against Aspergillus brasiliensis [1] [ppm] | MIC (ppm) against Malassezia furfur [2] [ppm] | MIC (ppm) against Malassezia pachydermatis [3] [ppm] | MIC (ppm) against Malassezia sympodialis [4] [ppm] | MIC (ppm) against Candida albicans [5] [ppm] | times less potent than azoxystrobin (MIC against Malassezia furfur) ([2]; ratio of MICs, Malassezia furfur) [times] | MIC against Malassezia yeasts (all species tested) (Malassezia yeasts; M. furfur, M. sympodialis, M. pachydermatis) | times more potent than pyraclostrobin (MIC against Malassezia, in all cases) (Malassezia yeasts; ratio of MICs, all three Malassezia species) [times] | solubility in water [6] | MIC [1] [µg/mL] | MIC ([2]; Malassezia furfur) [µg/mL] | MIC [3] [µg/mL] | MIC [4] [µg/mL] | MIC [5] [µg/mL]
CO/C=C(/C(=O)OC)c1ccccc1Oc1cc(Oc2ccccc2C#N)ncn1 [Azoxystrobin] | 0.24 | 0.49 | 0.98 | 0.12 | >250 | – | less than 1.0 ppm | 4 | low | – | – | – | – | –

— patent US20220192956A1, “SUPERIOR EFFICACY OF AZOXYSTROBIN AND OTHER STROBILURINS” (The Procter & Gamble Company, priority 2020, published 2022)
